Measured values: US20180200257A1, “METHODS FOR THE TREATMENT OF INFLAMMATORY DISORDERS” (Galapagos NV, priority 2015, published 2018)

System: subjects with moderately to severely active RA who have an inadequate response to methotrexate (MTX)
Assay: Study 1 (add-on to MTX) - Alanine Aminotransferase (ALT) levels
Assay type: in vivo, human
Details: 24 weeks results
Procedure: Double-blind, placebo-controlled add on study in subjects with moderately to severely active RA who have an inadequate response to methotrexate (MTX) (oral or parenteral).
595 subjects randomized to one of 6 dose regimens of Compound 1 (dosed as [Compound 1:HCl:3H2O]) (3 dose levels administered either once or twice daily) or placebo on top of each subject's stable dose of MTX.
Compound 1 (dosed as [Compound 1:HCl:3H2O]) is dosed for twelve weeks once daily (q.d.) (50 mg, 100 mg or 200 mg) or twice daily (b.i.d.) (25 mg, 50 mg or 100 mg); or placebo.
At Week 12, the subjects on placebo who have not achieved 20% improvement in swollen joint count (SJC66) and tender joint count (TJC68) are re-randomized automatically to receive Compound 1 (dosed as a [Compound 1:HCl:3H2O]) either at 100 mg q.d. or 50 mg b.i.d. doses in a blinded fashion; subjects on 50 mg q.d. who have not achieved 20% improvement in SJC66 and TJC68 will be assigned to 100 mg q.d. and subjects on 25 mg b.i.d. that have not achieved a 20% improvement in SJC66 and TJC68 will be assigned to 50 mg b.i.d. Subjects who switch treatment at week 12 are handled as if they discontinued at week 12 for the purpose of statistical analysis, whereas subjects in the other groups will maintain their randomized treatment until Week 24.
ALT levels determination is available at Quest Diagnostics, Clinical Trials, Quest House, 125-135 Staines Road, Hounslow, Middlesex, TW3 3JB, United Kingdom under Catalogue n#84460.
ALT catalyzes the exchange of the amino group of alanine with the oxogroup of 2-ketoglutarate to form pyruvate and glutamate. In the presence of lactic dehydrogenase, pyruvate reacts with NADH to form NAD+, measured spectrophotometrically. Guidelines for the ALT value have been issued by the association for Clinical Biochemistry and Laboratory Medicine, 130-132 Tooley Street LONDON SE1 2TU, united Kingdom, wherein the ALT value should be below 34 U/l in Female and below 52 U/L in male.

[1] = continued 100 mg b.i.d., week 1
[2] = continued 100 mg b.i.d., week 2
[3] = continued 100 mg b.i.d., week 4
[4] = continued 100 mg b.i.d., week 8
[5] = continued 100 mg b.i.d., week 12
[6] = continued 100 mg b.i.d., week 16
[7] = continued 100 mg b.i.d., week 20
[8] = continued 100 mg b.i.d., week 24
[9] = from 25 mg b.i.d. to 50 mg b.i.d. at 12 weeks, week 1
[10] = from 25 mg b.i.d. to 50 mg b.i.d. at 12 weeks, week 2
[11] = from 25 mg b.i.d. to 50 mg b.i.d. at 12 weeks, week 4
[12] = from 25 mg b.i.d. to 50 mg b.i.d. at 12 weeks, week 8
[13] = from 25 mg b.i.d. to 50 mg b.i.d. at 12 weeks, week 12
[14] = from 25 mg b.i.d. to 50 mg b.i.d. at 12 weeks, week 16
[15] = from 25 mg b.i.d. to 50 mg b.i.d. at 12 weeks, week 20
[16] = from 25 mg b.i.d. to 50 mg b.i.d. at 12 weeks, week 24
[17] = from 50 mg q.d. to 100 mg q.d. at 12 weeks, week 1
[18] = from 50 mg q.d. to 100 mg q.d. at 12 weeks, week 2
[19] = from 50 mg q.d. to 100 mg q.d. at 12 weeks, week 4
[20] = from 50 mg q.d. to 100 mg q.d. at 12 weeks, week 8
[21] = from 50 mg q.d. to 100 mg q.d. at 12 weeks, week 12
[22] = from 50 mg q.d. to 100 mg q.d. at 12 weeks, week 16
[23] = from 50 mg q.d. to 100 mg q.d. at 12 weeks, week 20
[24] = from 50 mg q.d. to 100 mg q.d. at 12 weeks, week 24
[25] = placebo switched to 50 mg b.i.d. at week 12, week 16
[26] = placebo switched to 50 mg b.i.d. at week 12, week 20
[27] = placebo switched to 50 mg b.i.d. at week 12, week 24
[28] = placebo switched to 100 mg q.d. at week 12, week 16
[29] = placebo switched to 100 mg q.d. at week 12, week 20
[30] = placebo switched to 100 mg q.d. at week 12, week 24

## O=C(Nc1nc2cccc(-c3ccc(CN4CCS(=O)(=O)CC4)cc3)n2n1)C1CC1 [Compound 1, cyclopropanecarboxylic acid {5-[4-(1,1-dioxo-thiomorpholin-4-ylmethyl)-phenyl]-[1,2,4]triazolo[1,5-a]pyridin-2-yl}-amide]
Continued 50 mg q.d., week 12
  Study 1 - ALT Mean CFB: 0.5 IU/L
  Study 1 - ALT Mean percentage CFB: 13.8%
Continued 50 mg q.d., week 16
  Study 1 - ALT Mean CFB: 1.1 IU/L
  Study 1 - ALT Mean percentage CFB: 18.1%
Continued 50 mg q.d., week 20
  Study 1 - ALT Mean CFB: 2.2 IU/L
  Study 1 - ALT Mean percentage CFB: 22.1%
Continued 50 mg q.d., week 24
  Study 1 - ALT Mean CFB: 1.7 IU/L
  Study 1 - ALT Mean percentage CFB: 19.4%
[1]
  Study 1 - ALT Mean CFB: 0.5 IU/L
  Study 1 - ALT Mean percentage CFB: 8.8%
[2]
  Study 1 - ALT Mean CFB: 0.8 IU/L
  Study 1 - ALT Mean percentage CFB: 10.4%
[3]
  Study 1 - ALT Mean CFB: 0.8 IU/L
  Study 1 - ALT Mean percentage CFB: 20.4%
[4]
  Study 1 - ALT Mean CFB: 0.6 IU/L
  Study 1 - ALT Mean percentage CFB: 24.5%
[5]
  Study 1 - ALT Mean CFB: 1.7 IU/L
  Study 1 - ALT Mean percentage CFB: 26.0%
[6]
  Study 1 - ALT Mean CFB: 3.2 IU/L
  Study 1 - ALT Mean percentage CFB: 32.4%
[7]
  Study 1 - ALT Mean CFB: 2.8 IU/L
  Study 1 - ALT Mean percentage CFB: 34.2%
[8]
  Study 1 - ALT Mean CFB: 4.0 IU/L
  Study 1 - ALT Mean percentage CFB: 47.8%
Continued 100 mg q.d., week 1
  Study 1 - ALT Mean CFB: 3.0 IU/L
  Study 1 - ALT Mean percentage CFB: 13.6%
Continued 100 mg q.d., week 2
  Study 1 - ALT Mean CFB: 0.9 IU/L
  Study 1 - ALT Mean percentage CFB: 8.8%
Continued 100 mg q.d., week 4
  Study 1 - ALT Mean CFB: 0.6 IU/L
  Study 1 - ALT Mean percentage CFB: 9.1%
Continued 100 mg q.d., week 8
  Study 1 - ALT Mean CFB: 1.7 IU/L
  Study 1 - ALT Mean percentage CFB: 15.1%
Continued 100 mg q.d., week 12
  Study 1 - ALT Mean CFB: 1.6 IU/L
  Study 1 - ALT Mean percentage CFB: 15.6%
Continued 100 mg q.d., week 16
  Study 1 - ALT Mean CFB: 0.7 IU/L
  Study 1 - ALT Mean percentage CFB: 9.5%
Continued 100 mg q.d., week 20
  Study 1 - ALT Mean CFB: 1.8 IU/L
  Study 1 - ALT Mean percentage CFB: 19.8%
Continued 100 mg q.d., week 24
  Study 1 - ALT Mean CFB: 5.1 IU/L
  Study 1 - ALT Mean percentage CFB: 39.5%
Continued 200 mg q.d., week 1
  Study 1 - ALT Mean CFB: 2.3 IU/L
  Study 1 - ALT Mean percentage CFB: 11.4%
Continued 200 mg q.d., week 2
  Study 1 - ALT Mean CFB: 1.4 IU/L
  Study 1 - ALT Mean percentage CFB: 15.5%
Continued 200 mg q.d., week 4
  Study 1 - ALT Mean CFB: 1.1 IU/L
  Study 1 - ALT Mean percentage CFB: 15.1%
Continued 200 mg q.d., week 8
  Study 1 - ALT Mean CFB: 3.9 IU/L
  Study 1 - ALT Mean percentage CFB: 31.1%
Continued 200 mg q.d., week 12
  Study 1 - ALT Mean CFB: 3.4 IU/L
  Study 1 - ALT Mean percentage CFB: 33.9%
Continued 200 mg q.d., week 16
  Study 1 - ALT Mean CFB: 4.7 IU/L
  Study 1 - ALT Mean percentage CFB: 43.8%
Continued 200 mg q.d., week 20
  Study 1 - ALT Mean CFB: 2.9 IU/L
  Study 1 - ALT Mean percentage CFB: 32.9%
Continued 200 mg q.d., week 24
  Study 1 - ALT Mean CFB: 5.4 IU/L
  Study 1 - ALT Mean percentage CFB: 47.5%
[9]
  Study 1 - ALT Mean CFB: −7.8 IU/L
  Study 1 - ALT Mean percentage CFB: −16.4%
[10]
  Study 1 - ALT Mean CFB: −7.3 IU/L
  Study 1 - ALT Mean percentage CFB: −12.0%
[11]
  Study 1 - ALT Mean CFB: −5.6 IU/L
  Study 1 - ALT Mean percentage CFB: 0.0%
[12]
  Study 1 - ALT Mean CFB: −8.3 IU/L
  Study 1 - ALT Mean percentage CFB: −16.4%
[13]
  Study 1 - ALT Mean CFB: −6.4 IU/L
  Study 1 - ALT Mean percentage CFB: −5.8%
[14]
  Study 1 - ALT Mean CFB: −7.9 IU/L
  Study 1 - ALT Mean percentage CFB: −9.7%
[15]
  Study 1 - ALT Mean CFB: −5.4 IU/L
  Study 1 - ALT Mean percentage CFB: 5.9%
[16]
  Study 1 - ALT Mean CFB: −4.8 IU/L
  Study 1 - ALT Mean percentage CFB: 5.7%
[17]
  Study 1 - ALT Mean CFB: 0.4 IU/L
  Study 1 - ALT Mean percentage CFB: 0.9%
[18]
  Study 1 - ALT Mean CFB: −1.4 IU/L
  Study 1 - ALT Mean percentage CFB: −6.5%
[19]
  Study 1 - ALT Mean CFB: −0.3 IU/L
  Study 1 - ALT Mean percentage CFB: 2.2%
[20]
  Study 1 - ALT Mean CFB: −0.2 IU/L
  Study 1 - ALT Mean percentage CFB: 3.6%
[21]
  Study 1 - ALT Mean CFB: −0.1 IU/L
  Study 1 - ALT Mean percentage CFB: 5.2%
[22]
  Study 1 - ALT Mean CFB: −2.3 IU/L
  Study 1 - ALT Mean percentage CFB: −9.8%
[23]
  Study 1 - ALT Mean CFB: −1.7 IU/L
  Study 1 - ALT Mean percentage CFB: −3.7%
[24]
  Study 1 - ALT Mean CFB: −3.0 IU/L
  Study 1 - ALT Mean percentage CFB: −8.7%
[25]
  Study 1 - ALT Mean CFB: 0.5 IU/L
  Study 1 - ALT Mean percentage CFB: 1.1%
[26]
  Study 1 - ALT Mean CFB: 0.7 IU/L
  Study 1 - ALT Mean percentage CFB: 0.7%
[27]
  Study 1 - ALT Mean CFB: 1.0 IU/L
  Study 1 - ALT Mean percentage CFB: 6.8%
[28]
  Study 1 - ALT Mean CFB: −1.3 IU/L
  Study 1 - ALT Mean percentage CFB: 0.4%
[29]
  Study 1 - ALT Mean CFB: 0.5 IU/L
  Study 1 - ALT Mean percentage CFB: 5.9%
[30]
  Study 1 - ALT Mean CFB: −0.1 IU/L
  Study 1 - ALT Mean percentage CFB: 10.0%
